Where “and” joins values, the source holds several entries; their conditions need not be identical. Equal entries are not always repeated.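 Interpolation was linear, between the two tested concentrations surrounding the appropriate level; five concentrations were tested over 48 hours in 96-well plates. GI50 is the concentration that inhibits growth by half. TGI denotes the concentration required for complete inhibition of growth.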
Assays:
Assay in all cases: growth of human tumour cells (NCI), 48 h
[1] = test system: EKVX NSCLC
[2] = test system: HL-60(TB) leukemia
[3] = test system: SN12C renal
[4] = test system: NCI-H522 lung
[5] = test system: A549 NSCLC
[6] = test system: T-47D breast
[7] = test system: HOP-92 NSCLC
[8] = test system: NCI/ADR-RES ovarian

Row | Structure (SMILES) | GI50 [1] | TGI [1] | GI50 [2] | TGI [2] | GI50 [3] | TGI [3] | GI50 [4] | TGI [4] | GI50 [5] | TGI [5] | GI50 [6] | TGI [6] | GI50 [7] | TGI [7] | GI50 [8] | TGI [8]
1 | Cc1nc2sc(C(=O)Nc3cccc(Br)c3C)c(N)c2cc1C(O)c1ccccc1 (configuration not stated) | 0.283 µM | 43.8 µM | 0.03 µM | 0.0876 µM | 0.0581 µM | 6.04 µM | 0.0286 µM | 2.55 µM | 0.0466 µM | > 100 µM | 0.0554 µM | 67.7 µM | 1.33 µM | 16.5 µM | 0.032 µM | 12.8 µM
2 | CC1(C)C(N2CCOCC2)CS1(=O)=O (configuration not stated) | – | > 10 µM | – | > 10 µM | – | > 10 µM | – | > 10 µM | – | > 10 µM | – | > 10 µM | – | > 10 µM | – | > 10 µM
3 | C[C@]12CC[C@H](O[C@@H]3O[C@H](CO[C@@H]4O[C@H](CO)[C@@H](O)[C@H](O)[C@H]4O)[C@@H](O)[C@H](O)[C@H]3O)C[C@@H]1CC[C@@H]1[C@@H]2CC[C@]2(C)[C@@H](C3=CC(=O)OC3)CC[C@]12O | – | 40.4 µM | – | 54.9 µM | – | 65.3 µM | – | 46.7 µM | – | 15.9 µM | – | > 95.7 µM | – | > 89.1 µM | – | 39.3 µM
4 | CN(C)c1ccc(/C=C(\C#N)c2cc3ccccc3[nH]2)cc1 | 2.94 µM | > 100 µM | 0.455 µM | > 100 µM | 2.37 µM | > 100 µM | 0.542 µM | > 100 µM | 1.55 µM | > 100 µM | 0.585 µM | > 100 µM | 1.42 µM | 5.53 µM | 0.49 µM | > 100 µM
5 | NS(=O)(=O)c1ccc(N=Nc2ccc[nH]c2=O)cc1 | – | > 100 µM | – | > 100 µM | – | > 100 µM | – | > 100 µM | – | > 100 µM | – | > 100 µM | – | > 100 µM | – | > 100 µM
6 | NC(=O)c1c(NC(=O)c2cccs2)sc2c1CCC(=O)C2 | 2.54 µM | 87.1 µM | 2.45 µM | 7.13 µM | 2.95 µM | > 100 µM | 0.892 µM | 7.92 µM | 3.5 µM | > 100 µM | 2.05 µM | > 100 µM | 1.38 µM | 4 µM | 2.5 µM | 26.4 µM
7 | O=C(O)CCC(c1ccccc1)(c1ccccc1)c1ccccc1 | – | > 100 µM | – | > 90.6 µM | – | > 100 µM | 55.3 µM | > 100 µM | – | > 100 µM | – | > 60.3 µM | – | > 73.9 µM | – | > 100 µM
8 | COc1ccc(Oc2nc3cc(N)cc(N)c3nc2-c2ccccc2)cc1 | 24.7 µM | 63.1 µM | 15.4 µM | > 100 µM | 50.1 µM | > 100 µM | 31.4 µM | > 100 µM | 37.4 µM | > 100 µM | 15.3 µM | 97.3 µM | – | – | 59.9 µM | > 100 µM
9 | COc1cccc2c1C(=O)c1c(O)c3c(c(O)c1C2=O)C[C@@](O)(/C(CO)=N/NC(=O)CCCCCN1C(=O)C=CC1=O)C[C@@H]3O[C@H]1C[C@H](N)[C@H](O)[C@H](C)O1 | 3.1 µM | > 75.9 µM | 0.8 µM | 15.5 µM | 0.446 µM | > 100 µM | 0.56 µM | 4.21 µM | – | – | 0.49 µM | 8.41 µM | 0.27 µM | 7.01 µM | > 100 µM | > 100 µM
10 | C[C@@H](Nc1cc(F)cc(F)c1)c1cc(C(=O)N(C)C)cc2c(=O)cc(N3CCOCC3)oc12 | – | – | 2.17 µM | > 57.6 µM | 7.14 µM | > 100 µM | 20.8 µM | > 100 µM | 7.43 µM | > 100 µM | 0.315 µM | 6.94 µM | < 0.0389 µM | 13 µM | > 83.9 µM | > 100 µM
11 | Oc1ccc2c(=S)cc(-c3ccc(Br)cc3)oc2c1O | 17.9 µM | 56.6 µM | 1.66 µM | 6.24 µM | 2.61 µM | 12.3 µM | 1.16 µM | 3.88 µM | 3.26 µM | – | 1.27 µM | 5.15 µM | 1.69 µM | 6.11 µM | 1.43 µM | 6.05 µM
12 | CC(=Nc1ccc(N(C)C)cc1)c1ccccc1 | – | > 100 µM | – | 43.9 µM | – | 32.1 µM | – | 40.8 µM | – | 81.9 µM | – | 55.4 µM | – | – | – | 68.4 µM
13 | C#C[C@@]1(O)[C@@H](CO)O[C@@H](n2cc(Br)c3c(Cl)ccnc32)[C@@H]1O | 17.3 µM | > 100 µM | 1.03 µM | 3.69 µM | 0.59 µM | > 100 µM | 3.64 µM | > 100 µM | 7.01 µM | > 100 µM | 0.394 µM | > 19.9 µM | 0.115 µM | 0.916 µM | 0.422 µM | 5.03 µM
14 | COC(=O)[C@]12CC[C@@H](C)[C@H](C)[C@@H]1C1=CC[C@@H]3[C@@]4(C)C(C=O)=C[C@@](C)(CO)[C@@H]4[C@H](O)C[C@@]3(C)[C@]1(C)CC2 | 4.03 µM | 16 µM | – | – | 4.85 µM | 17.3 µM | – | – | 4.15 µM | 14.6 µM | 2.11 µM | 13.2 µM | 6.18 µM | 20.9 µM | 4.12 µM | 34.6 µM
15 | COC(=O)[C@H](Cc1cn(C)cn1)NC(=O)[C@H](CC(=O)OCc1ccccc1)NC(=O)Nc1cc(C(F)(F)F)cc(C(F)(F)F)c1 | – | – | 12.3 µM | 27.1 µM | 4.79 µM | 17.3 µM | 8.53 µM | 21.4 µM | 11.6 µM | 25.9 µM | 7.38 µM and 4.83 µM | 18.6 µM | – | – | 17.3 µM | 35.6 µM
16 | CC12OC(CC(O)C1O)n1c3ccccc3c3c4c(c5c6ccccc6n2c5c31)C(=O)N(CCN1CCOCC1)C4=O (configuration not stated) | 1.48 µM | 8.94 µM | 0.989 µM | 7.08 µM | 1.02 µM | 6.12 µM | 0.704 µM | 3.63 µM | 0.4 µM | 2.35 µM | 0.651 µM | 3.84 µM | 2.03 µM | 9.4 µM | 1.82 µM | 8.31 µM
17 | COC(=O)c1c[nH]c2cc(OC(C)C)c(OC(C)C)cc2c1=O | > 100 µM | > 100 µM | > 100 µM | > 100 µM | > 100 µM | > 100 µM | > 100 µM | > 100 µM | > 100 µM | > 100 µM | > 100 µM | > 100 µM | > 100 µM | > 100 µM | > 100 µM | > 100 µM
